pIC50: −log10 of the molar value. Activity calls are given as the source filed them. No cut-off for these calls is given here.
Assays:
[1] = Inhibition of alpha-mannosidase
[2] = Inhibition of alpha-glucosidase assessed as p-nitrophenol release using p-nitrophenyl-alpha-D-glucopyranoside as substrate preincubated for 1 hr before substrate addition at pH 6.8 measured after 10 mins by spectrophotometry
[3] = Inhibition of jack bean alpha-mannosidase assessed as p-nitrophenol release using p-nitrophenyl-alpha-D-mannopyranoside as substrate preincubated for 1 hr before substrate addition at pH 4.5 measured after 10 mins by spectrophotometry; parameters: species or system Canavalia ensiformis
[4] = Inhibition of alpha-galactosidase assessed as p-nitrophenol release using p-nitrophenyl-alpha-D-galactopyranoside as substrate preincubated for 1 hr before substrate addition measured after 10 mins by spectrophotometry
[5] = molecular target: T1, Pancreatic alpha-amylase (Sus scrofa) (UniProt P00690); experiment: Inhibition of pig pancreatic alpha-amylase assessed as maltose release from starch at 5 mg/cm'3 after 10 mins by DNSA assay
T1 sequence (whole entry): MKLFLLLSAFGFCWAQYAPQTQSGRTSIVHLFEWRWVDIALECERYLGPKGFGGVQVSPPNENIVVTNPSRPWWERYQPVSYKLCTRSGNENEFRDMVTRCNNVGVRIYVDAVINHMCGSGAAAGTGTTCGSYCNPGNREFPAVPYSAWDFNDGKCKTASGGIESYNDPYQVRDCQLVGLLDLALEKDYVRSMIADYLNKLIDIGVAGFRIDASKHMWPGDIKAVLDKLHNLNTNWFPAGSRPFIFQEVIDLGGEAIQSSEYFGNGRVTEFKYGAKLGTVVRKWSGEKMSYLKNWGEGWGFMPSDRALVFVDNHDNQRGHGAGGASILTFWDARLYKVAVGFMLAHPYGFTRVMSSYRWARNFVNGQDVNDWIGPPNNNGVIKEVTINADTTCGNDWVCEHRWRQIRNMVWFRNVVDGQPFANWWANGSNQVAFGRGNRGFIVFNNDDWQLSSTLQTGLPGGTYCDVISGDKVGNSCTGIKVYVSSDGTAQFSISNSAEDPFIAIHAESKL

[6] = Inhibition of jack bean alpha-mannosidase assessed as p-nitrophenol release using p-nitrophenyl-alpha-D-mannopyranoside as substrate after 15 to 60 mins by spectrophotometry; parameters: species or system Canavalia ensiformis

Compound | pIC50 [1] | inhibition [2] | pIC50 [3] | inhibition [4] | inhibition [5] | pIC50 [6]
OC[C@@H]1CC2C(O)C(O)C1(O)CN2Cc1ccccc1 (stereo partly specified) | 1.70 |  |  |  |  | 
OC[C@H]1O[C@@H]2OCC[C@@]1(O)[C@H]2O |  | inactive | 3.88 | inactive | inactive | 
O[C@H]1[C@H]2[C@H](O)CCCN2C[C@H]1O [TRIDOLGOSIR] |  |  |  |  |  | 7.00
NC[C@H]1O[C@@H]2OCC[C@@]1(O)[C@H]2O |  | inactive | 4.01 | inactive | inactive | 
OC[C@@H]1CC2NCC1(O)C(O)C2O (stereo partly specified) | 2.02 |  |  |  |  | 

From ChEMBL document CHEMBL1914357, “Synthesis of anomeric 1,5-anhydrosugars as conformationally locked selective α-mannosidase inhibitors” (Bioorg Med Chem, 2011)
